From PubChem BioAssay (NCI)
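Five concentrations, 48 hours, 96-well plates. Here, GI50 denotes the concentration required for 50% inhibition of growth. At the TGI there is no net growth.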

Tests used:
Assay in all cases: DTP human tumour cell line panel, 48 h
[1] = test system: NCI-H23 lung
[2] = test system: NCI-H460 lung
[3] = test system: NCI-H522 lung
[4] = test system: NCI/ADR-RES ovarian
[5] = test system: OVCAR-4 ovarian
[6] = test system: OVCAR-5 ovarian
[7] = test system: OVCAR-8 ovarian
[8] = test system: PC-3 prostate
[9] = test system: RPMI-8226 leukemia
[10] = test system: RXF 393 renal
[11] = test system: SF-268 CNS
[12] = test system: SF-295 CNS
[13] = test system: SF-539 CNS
[14] = test system: SK-MEL-2 melanoma
[15] = test system: SK-MEL-28 melanoma
[16] = test system: SK-MEL-5 melanoma
[17] = test system: SK-OV-3 ovarian
[18] = test system: SN12C renal
[19] = test system: SNB-19 CNS
[20] = test system: SNB-75 CNS
[21] = test system: SR leukemia
[22] = test system: SW-620 colon
[23] = test system: T-47D breast
[24] = test system: TK-10 renal
[25] = test system: U251 CNS
[26] = test system: UACC-257 melanoma
[27] = test system: UACC-62 melanoma
[28] = test system: UO-31 renal

SMILES: COc1ccc(Cn2cc3c(c2-c2cc(OC)c(OC)c(OC)c2)CCc2c(CN4CCCC4)noc2-3)cc1
- GI50 [1]: 2.8 µM
- TGI [1]: > 100 µM
- GI50 [2]: 0.566 µM
- TGI [2]: 12.6 µM
- GI50 [3]: 0.472 µM
- TGI [3]: 18.9 µM
- GI50 [4]: 0.55 µM
- TGI [4]: 11.2 µM
- GI50 [5]: 21.4 µM
- TGI [5]: > 100 µM
- GI50 [6]: 3.2 µM
- TGI [6]: > 100 µM
- GI50 [7]: 3.27 µM
- TGI [7]: 78.9 µM
- GI50 [8]: 0.636 µM
- TGI [8]: > 100 µM
- GI50 [9]: 1.27 µM
- TGI [9]: 9.04 µM
- GI50 [10]: 0.893 µM
- TGI [10]: 7.96 µM
- GI50 [11]: 3.15 µM
- TGI [11]: 29.8 µM
- GI50 [12]: 0.461 µM
- TGI [12]: 12.4 µM
- GI50 [13]: 0.753 µM
- TGI [13]: 4.46 µM
- GI50 [14]: 13.2 µM
- TGI [14]: 41.4 µM
- GI50 [15]: 11.5 µM
- TGI [15]: 29.6 µM
- GI50 [16]: 1.02 µM
- TGI [16]: 11.9 µM
- GI50 [17]: 6.7 µM
- TGI [17]: > 100 µM
- GI50 [18]: 4.43 µM
- TGI [18]: 78 µM
- GI50 [19]: 0.78 µM
- TGI [19]: > 100 µM
- GI50 [20]: 0.668 µM
- TGI [20]: 4.83 µM
- GI50 [21]: 0.36 µM
- TGI [21]: 13.5 µM
- GI50 [22]: 0.54 µM
- TGI [22]: 80.3 µM
- GI50 [23]: 2.65 µM
- TGI [23]: 48 µM
- GI50 [24]: 23.4 µM
- TGI [24]: > 100 µM
- GI50 [25]: 0.543 µM
- TGI [25]: 21.1 µM
- GI50 [26]: 17 µM
- TGI [26]: 47.7 µM
- GI50 [27]: 0.545 µM
- TGI [27]: 22.7 µM
- GI50 [28]: 1.16 µM
- TGI [28]: 13.7 µM
